koff data for one compound are collected here from BindingDB's records for PubMed 35442672 (Fudan University, 2022).

The test has as its target T1, Dual specificity mitogen-activated protein kinase kinase 3 (Homo sapiens, UniProt P46734).
T1 sequence (P46734 whole entry): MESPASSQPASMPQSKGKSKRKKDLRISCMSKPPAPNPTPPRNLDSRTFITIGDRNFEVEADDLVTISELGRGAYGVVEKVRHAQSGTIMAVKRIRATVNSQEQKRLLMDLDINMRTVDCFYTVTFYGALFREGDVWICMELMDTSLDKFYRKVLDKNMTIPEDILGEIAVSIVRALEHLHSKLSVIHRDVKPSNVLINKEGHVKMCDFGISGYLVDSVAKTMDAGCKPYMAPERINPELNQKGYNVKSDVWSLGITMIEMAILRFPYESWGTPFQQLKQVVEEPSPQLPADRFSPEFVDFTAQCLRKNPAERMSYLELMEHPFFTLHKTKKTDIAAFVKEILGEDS
Nature of the test: Binding affinity to CM5 chip immobilized human MKK3 (20 to 347 residues) expressed in Escherichia coli BL21 (DE3) assessed as dissociation constant, Kd by surface plasmon resonance analysis. In general terms: SPR reads the build-up and loss of mass on a sensor chip optically.

What is called koff is a measure of how fast the partners let go of each other. As to `COc1ccc([C@H]2CC(=O)c3cc(OC)cc(OC)c32)cc1`, the koff came to 0.00361 s⁻¹.
